Experiment [1] concerns Salmonidae. The experiment in a line: Binding affinity to salmon sperm DNA assessed as increase in DNA thermal melting temperature at 15 uM spectrophotometry.
Experiment [2] in a line: Binding affinity to poly(dA.dT)2 oligonucleotide DNA (unknown origin) assessed as increase in DNA thermal melting temperature at 15 uM spectrophotometry.
Experiment [3] can be described thus: Binding affinity to (CG)4 DNA hairpin sequence (unknown origin) by SPR assay.
A short description of experiment [4]: Selectivity index, ratio of binding affinity to (AT)4 DNA hairpin sequence (unknown origin) to binding affinity to AATT DNA hairpin sequence (unknown origin).
Experiment [5] is described as follows: Binding affinity to poly(dG.dC)2 oligonucleotide DNA (unknown origin) by UV spectroscopy.
Experiment [6] has as its system Salmonidae. As to the kind of experiment: Binding affinity to salmon sperm DNA assessed as change in ICD signals by CD spectroscopy.
In experiment [7] the test system is Salmonidae. As to the kind of experiment: Binding affinity to salmon sperm DNA by UV spectroscopy.
Experiment [8] can be described thus: Binding affinity to (AT)4 DNA hairpin sequence (unknown origin) by SPR assay. Background: SPR reads the build-up and loss of mass on a sensor chip optically.
Experiment [9] is described as follows: Binding affinity to AATT DNA hairpin sequence (unknown origin) by SPR assay.
A short description of experiment [10]: Binding affinity to poly(dA.dT)2 oligonucleotide DNA (unknown origin) by UV spectroscopy.
Experiment [11] is described as follows: Binding affinity to poly(dA.dT)2 oligonucleotide DNA (unknown origin) assessed as change in ICD signals by CD spectroscopy.
The nature of experiment [12]: Binding affinity to poly(dA).poly(dT) oligonucleotide DNA (unknown origin) assessed as increase in DNA thermal melting temperature at 15 uM spectrophotometry.
Experiment [13] in a line: Binding affinity to poly(dG.dC)2 oligonucleotide DNA (unknown origin) assessed as change in ICD signals by CD spectroscopy.

Activity calls are given as the source filed them. The calls are words filed in the database; no cut-off is given here.

The text below walks through data of ChEMBL document CHEMBL3351880, “Unexpected DNA affinity and sequence selectivity through core rigidity in guanidinium-based minor groove binders” (J Med Chem, 2014).

Turning to `c1cc2c(cc1NC1=NCCN1)Cc1ccc(NC3=NCCN3)cc1-2`, the ΔTm in experiment [1] turned out to be 9 °C; in [2], 26 °C; in experiment [12], 31 °C. The K in experiment [3] was 6.5 ×10⁵ /M; in [5], 9.2 ×10⁵ /M; in [7], 1.9 ×10⁵ /M; in experiment [8] it was 36.2 ×10⁵ /M; in experiment [9], 15 ×10⁵ /M; in experiment [10] it was 14 ×10⁵ /M. For the same compound, in experiment [4], the Selectivity Index is less than 2.4. Moreover, the result in experiment [6] and in experiment [11] was Active.

In the case of `c1cc2c(cc1NC1=NCCN1)Cc1ccc(NC3=NCCN3)cc1C2`, the ΔTm stood at 20 °C in experiment [1], 1 °C in [2] and 12 °C in experiment [12]. In addition, the K turned out to be 5.5 ×10⁵ /M in experiment [3], 5.1 ×10⁵ /M in experiment [8] and 2.7 ×10⁵ /M in experiment [9]. For the same compound, the Selectivity Index in experiment [4] is less than 2.4. In addition, the outcome in experiment [6] and in experiment [11] was inactive.

As for `c1cc(NC2=NCCN2)cc(Oc2ccc(NC3=NCCN3)cc2)c1`, the K was less than 1 ×10⁵ /M in experiment [3], 1.5 ×10⁵ /M in experiment [8] and less than 1 ×10⁵ /M in experiment [9]. Besides, the Selectivity Index in experiment [4] was less than 2.4.

Consider `c1cc(NC2=NCCN2)cc(Sc2ccc(NC3=NCCN3)cc2)c1`, for which the values for the K in experiment [3], in [8] and in [9] were 2.5 ×10⁵ /M, 3.2 ×10⁵ /M and 1.6 ×10⁵ /M, respectively. In experiment [4], the Selectivity Index was less than 2.4.

On to `Nc1ccc2cc3ccc(N)cc3nc2c1`, for which the K in [3] is 6.5 ×10⁵ /M; in experiment [8], 12.2 ×10⁵ /M; in experiment [9], 5.7 ×10⁵ /M. Moreover, in experiment [4], the Selectivity Index was less than 2.4.

Consider `c1cc(C2CCN(c3ccc(NC4=NCCN4)cc3)CC2)ccc1NC1=NCCN1`, for which the K in experiment [3] turned out to be 1.5 ×10⁵ /M; in experiment [8] it was 1.4 ×10⁵ /M; in [9], 1.1 ×10⁵ /M. Further, in experiment [4], the Selectivity Index was less than 2.4.

As to `c1cc(NC2=NCCN2)ccc1CCc1ccc(NC2=NCCN2)cc1`, the K was less than 1 ×10⁵ /M in [3], 1 ×10⁵ /M in [8] and less than 1 ×10⁵ /M in [9]. Also, the Selectivity Index in experiment [4] is less than 2.4.

Consider `N=C(N)Nc1ccc2c(c1)Cc1ccc(NC(=N)N)cc1C2`, for which the ΔTm in [1] was 4 °C; in [2] it was -3 °C; in experiment [12], 4 °C. For the same compound, the result in [6] and in experiment [11] was inactive.

On to `N=C(N)Nc1ccc2c(c1)Cc1ccc(NC3=NCCN3)cc1-2`, for which the ΔTm in [1] amounted to 4 °C; in experiment [2] it was 22 °C; in [12] it was 20 °C. Further, the result in experiment [6], in [13] and in experiment [11] was Active.

One may read the ΔTm as the shift of the melting midpoint relative to a reference.
